Assay: 13-week repeated oral toxicity: weight measurement
Format: in vivo, beagle
Conditions: for Weight: in kg (unit assumed)
Method: During the 13-week test period starting from the day before administration, the weight was measured a total of 15 times before administration (pre), before administration on the day of administration, and every week over the 13-week test period after the first administration at a predetermined time (remaining feed measurement time) before administration of the test substance (on every Tuesday during the test period).

## CN1C(=O)NC(=O)C1O (stereo not shown) [KBP-001, 5-hydroxy-1-methylimidazolidine-2,4-dione]
500 mg/kg repeated oral (G3), female, week 1, mean
  Weight, Mean: 9.6 kg
500 mg/kg repeated oral (G3), female, week 2, mean
  Weight, Mean: 9.5 kg
500 mg/kg repeated oral (G3), female, week 3, mean
  Weight, Mean: 9.6 kg
500 mg/kg repeated oral (G3), female, week 4, mean
  Weight, Mean: 9.8 kg
500 mg/kg repeated oral (G3), female, week 5, mean
  Weight, Mean: 9.8 kg
500 mg/kg repeated oral (G3), female, week 6, mean
  Weight, Mean: 9.8 kg
500 mg/kg repeated oral (G3), female, week 7, mean
  Weight, Mean: 9.8 kg
500 mg/kg repeated oral (G3), female, week 8, mean
  Weight, Mean: 9.8 kg
500 mg/kg repeated oral (G3), female, week 9, mean
  Weight, Mean: 9.8 kg
500 mg/kg repeated oral (G3), female, week 10, mean
  Weight, Mean: 9.8 kg
500 mg/kg repeated oral (G3), female, week 11, mean
  Weight, Mean: 9.9 kg
500 mg/kg repeated oral (G3), female, week 12, mean
  Weight, Mean: 9.9 kg
500 mg/kg repeated oral (G3), female, week 13, mean
  Weight, Mean: 10 kg
500 mg/kg repeated oral (G3), female, week pre, mean
  Weight, Mean: 9.5 kg
500 mg/kg repeated oral (G3), male, week 0, individual animals
  Weight: 10.0
500 mg/kg repeated oral (G3), male, week 0, mean
  Weight, Mean: 9.9 kg
500 mg/kg repeated oral (G3), male, week 1, mean
  Weight, Mean: 10 kg
500 mg/kg repeated oral (G3), male, week 2, mean
  Weight, Mean: 9.9 kg
500 mg/kg repeated oral (G3), male, week 3, mean
  Weight, Mean: 9.9 kg
500 mg/kg repeated oral (G3), male, week 4, mean
  Weight, Mean: 10 kg
500 mg/kg repeated oral (G3), male, week 5, mean
  Weight, Mean: 10.1 kg
500 mg/kg repeated oral (G3), male, week 6, individual animals
  Weight: 10.1
500 mg/kg repeated oral (G3), male, week 6, mean
  Weight, Mean: 10.1 kg
500 mg/kg repeated oral (G3), male, week 7, individual animals
  Weight: 10.1
500 mg/kg repeated oral (G3), male, week 7, mean
  Weight, Mean: 10.1 kg
500 mg/kg repeated oral (G3), male, week 8, individual animals
  Weight: 10.3
500 mg/kg repeated oral (G3), male, week 8, mean
  Weight, Mean: 10.1 kg
500 mg/kg repeated oral (G3), male, week 9, individual animals
  Weight: 10.4
500 mg/kg repeated oral (G3), male, week 9, mean
  Weight, Mean: 10.1 kg
500 mg/kg repeated oral (G3), male, week 10, individual animals
  Weight: 10.4
500 mg/kg repeated oral (G3), male, week 10, mean
  Weight, Mean: 10.2 kg
500 mg/kg repeated oral (G3), male, week 11, individual animals
  Weight: 10.4
500 mg/kg repeated oral (G3), male, week 11, mean
  Weight, Mean: 10.1 kg
500 mg/kg repeated oral (G3), male, week 12, individual animals
  Weight: 10.3
500 mg/kg repeated oral (G3), male, week 12, mean
  Weight, Mean: 10.2 kg
500 mg/kg repeated oral (G3), male, week 13, individual animals
  Weight: 10.5
500 mg/kg repeated oral (G3), male, week 13, mean
  Weight, Mean: 10.3 kg
500 mg/kg repeated oral (G3), male, week pre, individual animals
  Weight: 10.1
500 mg/kg repeated oral (G3), male, week pre, mean
  Weight, Mean: 10 kg
1,000 mg/kg repeated oral (G4), female, week 0, mean
  Weight, Mean: 9.4 kg
1,000 mg/kg repeated oral (G4), female, week 1, mean
  Weight, Mean: 9.4 kg
1,000 mg/kg repeated oral (G4), female, week 2, mean
  Weight, Mean: 9.3 kg
1,000 mg/kg repeated oral (G4), female, week 3, mean
  Weight, Mean: 9.4 kg
1,000 mg/kg repeated oral (G4), female, week 4, mean
  Weight, Mean: 9.6 kg
1,000 mg/kg repeated oral (G4), female, week 5, mean
  Weight, Mean: 9.5 kg
1,000 mg/kg repeated oral (G4), female, week 6, mean
  Weight, Mean: 9.4 kg
1,000 mg/kg repeated oral (G4), female, week 7, mean
  Weight, Mean: 9.4 kg
1,000 mg/kg repeated oral (G4), female, week 8, mean
  Weight, Mean: 9.5 kg
1,000 mg/kg repeated oral (G4), female, week 9, mean
  Weight, Mean: 9.7 kg
1,000 mg/kg repeated oral (G4), female, week 10, mean
  Weight, Mean: 0.8 kg
1,000 mg/kg repeated oral (G4), female, week 11, mean
  Weight, Mean: 9.8 kg
1,000 mg/kg repeated oral (G4), female, week 12, mean
  Weight, Mean: 9.8 kg
1,000 mg/kg repeated oral (G4), female, week 13, mean
  Weight, Mean: 9.8 kg
1,000 mg/kg repeated oral (G4), female, week pre, mean
  Weight, Mean: 9.4 kg
1,000 mg/kg repeated oral (G4), male, week 0, mean
  Weight, Mean: 10.2 kg
1,000 mg/kg repeated oral (G4), male, week 1, mean
  Weight, Mean: 10.2 kg
1,000 mg/kg repeated oral (G4), male, week 2, mean
  Weight, Mean: 10.1 kg
1,000 mg/kg repeated oral (G4), male, week 3, mean
  Weight, Mean: 10 kg
1,000 mg/kg repeated oral (G4), male, week 4, mean
  Weight, Mean: 10.2 kg
1,000 mg/kg repeated oral (G4), male, week 5, mean
  Weight, Mean: 10.3 kg
1,000 mg/kg repeated oral (G4), male, week 6, mean
  Weight, Mean: 10 kg
1,000 mg/kg repeated oral (G4), male, week 7, mean
  Weight, Mean: 10.1 kg
1,000 mg/kg repeated oral (G4), male, week 8, mean
  Weight, Mean: 10.1 kg
1,000 mg/kg repeated oral (G4), male, week 9, mean
  Weight, Mean: 10.2 kg
1,000 mg/kg repeated oral (G4), male, week 10, mean
  Weight, Mean: 10.2 kg
1,000 mg/kg repeated oral (G4), male, week 11, mean
  Weight, Mean: 10.2 kg
1,000 mg/kg repeated oral (G4), male, week 12, mean
  Weight, Mean: 10.2 kg
1,000 mg/kg repeated oral (G4), male, week 13, mean
  Weight, Mean: 10.2 kg
1,000 mg/kg repeated oral (G4), male, week pre, mean
  Weight, Mean: 10.2 kg
Repeated oral once a day for 13 weeks, male and female
  weight compared with control group: no significant differences in weight from the control group was observed

— patent publication US20240299359A1, “PHARMACEUTICAL COMPOSITION FOR ANIMALS CONTAINING 5-HYDROXY-METHYLIMIDAZOLIDINE-2,4-DIONE COMPOUND AS ACTIVE INGREDIENT” (KYONGBO PHARM. CO., LTD., priority 2021, published 2024)
